Assay results as given in ChEMBL document CHEMBL1201862, “PubChem BioAssay data set” (2004).
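Method: 48-hour compound exposure of cells in 96-well plates, five concentrations, linear interpolation of endpoints. GI50 is the concentration that inhibits growth by half.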 Activity calls are given as the source filed them. No stated cut-off is given here; in the data, active = GI50 up to about 1.1 µM and inactive = higher.

Legend:
Test in all cases: NCI-60 cell line screen, 48 h
[1] = tested on: SF-539
[2] = tested on: HOP-92
[3] = tested on: OVCAR-4
[4] = tested on: SK-OV-3
[5] = tested on: SW-620
[6] = tested on: OVCAR-3
[7] = tested on: OVCAR-8
[8] = tested on: KM-20L2
[9] = tested on: DLD-1
[10] = tested on: SN12C
[11] = tested on: UACC-257
[12] = tested on: NCI-H460
[13] = tested on: SNB-75
[14] = tested on: HT-29
[15] = tested on: HL-60
[16] = tested on: XF498
[17] = tested on: SF-295
[18] = tested on: RXF 393
[19] = tested on: MOLT-4
[20] = tested on: LOX IMVI
[21] = tested on: SK-MEL-28
[22] = tested on: DMS-114
[23] = tested on: SNB-78
[24] = tested on: UACC-62
[25] = tested on: CCRF-CEM
[26] = tested on: IGROV-1
[27] = tested on: 786-0
[28] = tested on: DMS-273
[29] = tested on: SNB-19
[30] = tested on: LXFL 529
[31] = tested on: OVCAR-5
[32] = tested on: NCI-H522
[33] = tested on: SK-MEL-2
[34] = tested on: U-251
[35] = tested on: NCI-H226
[36] = tested on: CAKI-1
[37] = tested on: A549
[38] = tested on: A498
[39] = tested on: UO-31
[40] = tested on: M19-MEL
[41] = tested on: RPMI-8226
[42] = tested on: M14
[43] = tested on: Malme-3M
[44] = tested on: KM12
[45] = tested on: HCT-15
[46] = tested on: SK-MEL-5
[47] = tested on: RXF 631
[48] = tested on: K562
[49] = tested on: ACHN
[50] = tested on: COLO 205
[51] = tested on: HCC 2998
[52] = tested on: NCI-H23
[53] = tested on: EKVX
[54] = tested on: SF-268
[55] = tested on: HCT-116
[56] = tested on: SR
[57] = tested on: HOP-62
[58] = tested on: HOP-18

`COc1ccc(CNc2cc(OC)c(OC)c(OC)c2)cc1` was tested, and the GI50 [1] was 6.21 µM (inactive), the GI50 [2] was 7.48 µM (inactive) and the GI50 [3] was 12.4 µM (inactive). The GI50 [4] was 5.65 µM (inactive), the GI50 [5] was 3.31 µM (inactive) and the GI50 [6] was 3.14 µM (inactive). For the same compound, the GI50 [7] was 8.99 µM (inactive), the GI50 [8] was 2.8 µM (inactive) and the GI50 [9] was 5.66 µM (inactive). For the same compound, the GI50 [10] was 7.71 µM (inactive), the GI50 [11] was 7.21 µM (inactive) and the GI50 [12] was 3.47 µM (inactive). For the same compound, the GI50 [13] was 5.57 µM (inactive), the GI50 [14] was 3.66 µM (inactive) and the GI50 [15] was 2.67 µM (inactive). For the same compound, the GI50 [16] was 21.3 µM (inactive), the GI50 [17] was 4.18 µM (inactive) and the GI50 [18] was 5.89 µM (inactive). The GI50 [19] was 3.98 µM (inactive), the GI50 [20] was 5.94 µM (inactive) and the GI50 [21] was 2.94 µM (inactive). The GI50 [22] was 3.01 µM (inactive), the GI50 [23] was 4.62 µM (inactive) and the GI50 [24] was 3.32 µM (inactive). For the same compound, the GI50 [25] was 4.48 µM (inactive), the GI50 [26] was 5.89 µM (inactive) and the GI50 [27] was 12.2 µM (inactive). The GI50 [28] was 2.09 µM (inactive), the GI50 [29] was 6.85 µM (inactive) and the GI50 [30] was 7.64 µM (inactive). The GI50 [31] was > 25.3 µM (inactive), the GI50 [32] was 3.12 µM (inactive) and the GI50 [33] was 2.72 µM (inactive). The GI50 [34] was 3.78 µM (inactive), the GI50 [35] was 7.5 µM (inactive) and the GI50 [36] was 4.36 µM (inactive). The GI50 [37] was 6.11 µM (inactive), the GI50 [38] was 9.08 µM (inactive) and the GI50 [39] was 10.4 µM (inactive). The GI50 [40] was 4.57 µM (inactive), the GI50 [41] was 4.18 µM (inactive) and the GI50 [42] was 6.82 µM (inactive). For the same compound, the GI50 [43] was 7.03 µM (inactive), the GI50 [44] was 2.25 µM (inactive) and the GI50 [45] was 3.52 µM. For the same compound, the GI50 [46] was 3.35 µM (inactive), the GI50 [47] was 3.47 µM (inactive) and the GI50 [48] was 2.18 µM (inactive). The GI50 [49] was 12.1 µM (inactive), the GI50 [50] was 2.84 µM (inactive) and the GI50 [51] was 6.32 µM (inactive). For the same compound, the GI50 [52] was 6.08 µM (inactive), the GI50 [53] was 14.6 µM (inactive) and the GI50 [54] was 3.43 µM (inactive). For the same compound, the GI50 [55] was 3.37 µM (inactive), the GI50 [56] was 3.25 µM (inactive) and the GI50 [57] was 5.57 µM (inactive). For the same compound, the GI50 [58] was > 21.7 µM (inactive).
